Reference: PubChem BioAssay (NCI)
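Growth conditions: 96-well plates. Treatment: test compound, 48 hours, 5 concentrations. Analysis: linear interpolation between bracketing concentrations; unreached endpoints set to highest concentration. GI50 is the concentration that inhibits growth by half. The concentration for full growth arrest is given as TGI.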

Legend:
Experiment in all cases: inhibition of tumour cell growth, NCI panel, 48 h
COLO 205 colon = tested on: COLO 205 colon
CAKI-1 renal = tested on: CAKI-1 renal
CCRF-CEM leukemia = tested on: CCRF-CEM leukemia
SK-OV-3 ovarian = tested on: SK-OV-3 ovarian
786-0 renal = tested on: 786-0 renal
M14 melanoma = tested on: M14 melanoma
SK-MEL-5 melanoma = tested on: SK-MEL-5 melanoma
HS 578T breast = tested on: HS 578T breast
EKVX NSCLC = tested on: EKVX NSCLC
MALME-3M melanoma = tested on: MALME-3M melanoma
HCT-116 colon = tested on: HCT-116 colon
HT29 colon = tested on: HT29 colon
A549 NSCLC = tested on: A549 NSCLC
HOP-62 NSCLC = tested on: HOP-62 NSCLC
UACC-257 melanoma = tested on: UACC-257 melanoma
OVCAR-8 ovarian = tested on: OVCAR-8 ovarian
ACHN renal = tested on: ACHN renal
NCI-H460 lung = tested on: NCI-H460 lung
SW-620 colon = tested on: SW-620 colon
SF-268 CNS = tested on: SF-268 CNS
HCT-15 colon = tested on: HCT-15 colon
RPMI-8226 leukemia = tested on: RPMI-8226 leukemia
OVCAR-4 ovarian = tested on: OVCAR-4 ovarian
NCI-H522 lung = tested on: NCI-H522 lung
NCI-H226 lung = tested on: NCI-H226 lung
MDA-MB-435 = tested on: MDA-MB-435
OVCAR-5 ovarian = tested on: OVCAR-5 ovarian
PC-3 prostate = tested on: PC-3 prostate
RXF 393 renal = tested on: RXF 393 renal
SN12C renal = tested on: SN12C renal
SF-539 CNS = tested on: SF-539 CNS
NCI/ADR-RES ovarian = tested on: NCI/ADR-RES ovarian
SF-295 CNS = tested on: SF-295 CNS
BT-549 breast = tested on: BT-549 breast
HL-60(TB) leukemia = tested on: HL-60(TB) leukemia
NCI-H23 lung = tested on: NCI-H23 lung
HCC-2998 colon = tested on: HCC-2998 colon
DU-145 prostate = tested on: DU-145 prostate
SK-MEL-2 melanoma = tested on: SK-MEL-2 melanoma
OVCAR-3 ovarian = tested on: OVCAR-3 ovarian
SK-MEL-28 melanoma = tested on: SK-MEL-28 melanoma
U251 CNS = tested on: U251 CNS
K-562 leukemia = tested on: K-562 leukemia
SNB-75 CNS = tested on: SNB-75 CNS
UO-31 renal = tested on: UO-31 renal
SR leukemia = tested on: SR leukemia
A498 renal = tested on: A498 renal
TK-10 renal = tested on: TK-10 renal
MCF7 breast = tested on: MCF7 breast
HOP-92 NSCLC = tested on: HOP-92 NSCLC
MOLT-4 leukemia = tested on: MOLT-4 leukemia
IGROV1 ovarian = tested on: IGROV1 ovarian
KM12 colon = tested on: KM12 colon
UACC-62 melanoma = tested on: UACC-62 melanoma
LOX IMVI melanoma = tested on: LOX IMVI melanoma
MDA-MB-231 breast = tested on: MDA-MB-231 breast
SNB-19 CNS = tested on: SNB-19 CNS

c1ccc2[nH]c(-c3ccc(Nc4nc(N5CCCC5)nc5[nH]ncc45)cc3)nc2c1
GI50 (COLO 205 colon): 217 nM | TGI (COLO 205 colon): 486 nM | GI50 (CAKI-1 renal): 1830 nM | TGI (CAKI-1 renal): 3480 nM | GI50 (CCRF-CEM leukemia): 294 nM | TGI (CCRF-CEM leukemia): 967 nM | GI50 (SK-OV-3 ovarian): 2550 nM | TGI (SK-OV-3 ovarian): 4870 nM | GI50 (786-0 renal): 170 nM | TGI (786-0 renal): 347 nM | GI50 (M14 melanoma): 403 nM | TGI (M14 melanoma): 1620 nM | GI50 (SK-MEL-5 melanoma): 1290 nM | TGI (SK-MEL-5 melanoma): 2560 nM | GI50 (HS 578T breast): 1210 nM | TGI (HS 578T breast): 4260 nM | GI50 (EKVX NSCLC): 1450 nM | TGI (EKVX NSCLC): 3120 nM | GI50 (MALME-3M melanoma): 314 nM | TGI (MALME-3M melanoma): 1300 nM | GI50 (HCT-116 colon): 203 nM | TGI (HCT-116 colon): 473 nM | GI50 (HT29 colon): 211 nM | TGI (HT29 colon): 495 nM | GI50 (A549 NSCLC): 329 nM | TGI (A549 NSCLC): 1220 nM | GI50 (HOP-62 NSCLC): 1460 nM | TGI (HOP-62 NSCLC): 3070 nM | GI50 (UACC-257 melanoma): 229 nM | TGI (UACC-257 melanoma): 632 nM | GI50 (OVCAR-8 ovarian): 241 nM | TGI (OVCAR-8 ovarian): 621 nM | GI50 (ACHN renal): 347 nM | TGI (ACHN renal): 1070 nM | GI50 (NCI-H460 lung): 412 nM | TGI (NCI-H460 lung): 1770 nM | GI50 (SW-620 colon): 211 nM | TGI (SW-620 colon): 486 nM | GI50 (SF-268 CNS): 620 nM | TGI (SF-268 CNS): 2420 nM | GI50 (HCT-15 colon): 255 nM | TGI (HCT-15 colon): 763 nM | GI50 (RPMI-8226 leukemia): 221 nM | TGI (RPMI-8226 leukemia): 528 nM | GI50 (OVCAR-4 ovarian): 1060 nM | TGI (OVCAR-4 ovarian): 2810 nM | GI50 (NCI-H522 lung): 244 nM | TGI (NCI-H522 lung): 1070 nM | GI50 (NCI-H226 lung): 1800 nM | TGI (NCI-H226 lung): 4010 nM | GI50 (MDA-MB-435): 1480 nM | TGI (MDA-MB-435): 3080 nM | GI50 (OVCAR-5 ovarian): 1230 nM | TGI (OVCAR-5 ovarian): 2870 nM | GI50 (PC-3 prostate): 1610 nM | TGI (PC-3 prostate): 4710 nM | GI50 (RXF 393 renal): 814 nM | TGI (RXF 393 renal): 2270 nM | GI50 (SN12C renal): 1670 nM | TGI (SN12C renal): 4150 nM | GI50 (SF-539 CNS): 1050 nM | TGI (SF-539 CNS): 2240 nM | GI50 (NCI/ADR-RES ovarian): 392 nM | TGI (NCI/ADR-RES ovarian): 1470 nM | GI50 (SF-295 CNS): 204 nM | TGI (SF-295 CNS): 477 nM | GI50 (BT-549 breast): 1680 nM | TGI (BT-549 breast): 3470 nM | GI50 (HL-60(TB) leukemia): 216 nM | TGI (HL-60(TB) leukemia): 517 nM | GI50 (NCI-H23 lung): 808 nM | TGI (NCI-H23 lung): 2700 nM | GI50 (HCC-2998 colon): 294 nM | TGI (HCC-2998 colon): 826 nM | GI50 (DU-145 prostate): 1130 nM | TGI (DU-145 prostate): 2770 nM | GI50 (SK-MEL-2 melanoma): 1710 nM | TGI (SK-MEL-2 melanoma): 3370 nM | GI50 (OVCAR-3 ovarian): 753 nM | TGI (OVCAR-3 ovarian): 2810 nM | GI50 (SK-MEL-28 melanoma): 181 nM | TGI (SK-MEL-28 melanoma): 338 nM | GI50 (U251 CNS): 185 nM | TGI (U251 CNS): 390 nM | GI50 (K-562 leukemia): 202 nM | TGI (K-562 leukemia): 466 nM | GI50 (SNB-75 CNS): 1280 nM | TGI (SNB-75 CNS): 2760 nM | GI50 (UO-31 renal): 1460 nM | TGI (UO-31 renal): 3540 nM | GI50 (SR leukemia): 254 nM | TGI (SR leukemia): 870 nM | GI50 (A498 renal): 1510 nM | TGI (A498 renal): 3010 nM | GI50 (TK-10 renal): 1910 nM | TGI (TK-10 renal): 3530 nM | GI50 (MCF7 breast): 213 nM | TGI (MCF7 breast): 619 nM | GI50 (HOP-92 NSCLC): 1140 nM | TGI (HOP-92 NSCLC): 2750 nM

Cc1cccc(-c2cc(=O)c3cccnc3[nH]2)c1
TGI (COLO 205 colon): 7500 nM | TGI (CCRF-CEM leukemia): > 100000 nM | TGI (SK-OV-3 ovarian): > 100000 nM | TGI (786-0 renal): > 100000 nM | TGI (M14 melanoma): > 100000 nM | TGI (SK-MEL-5 melanoma): 52300 nM | TGI (HS 578T breast): > 100000 nM | TGI (EKVX NSCLC): 87200 nM | TGI (HCT-116 colon): > 100000 nM | TGI (HT29 colon): 2930 nM | TGI (A549 NSCLC): > 100000 nM | TGI (HOP-62 NSCLC): > 100000 nM | TGI (MOLT-4 leukemia): > 100000 nM | TGI (OVCAR-8 ovarian): 53600 nM | TGI (IGROV1 ovarian): > 100000 nM | TGI (ACHN renal): > 100000 nM | TGI (KM12 colon): 82000 nM | TGI (NCI-H460 lung): > 100000 nM | TGI (SW-620 colon): > 100000 nM | TGI (SF-268 CNS): > 100000 nM | TGI (HCT-15 colon): > 100000 nM | TGI (RPMI-8226 leukemia): > 100000 nM | TGI (OVCAR-4 ovarian): > 100000 nM | TGI (NCI-H522 lung): 8250 nM | TGI (NCI-H226 lung): > 100000 nM | TGI (MDA-MB-435): 191 nM | TGI (OVCAR-5 ovarian): > 100000 nM | TGI (PC-3 prostate): > 100000 nM | TGI (RXF 393 renal): > 100000 nM | TGI (SN12C renal): > 100000 nM | TGI (SF-539 CNS): > 100000 nM | TGI (UACC-62 melanoma): > 100000 nM | TGI (NCI/ADR-RES ovarian): > 100000 nM | TGI (SF-295 CNS): > 100000 nM | TGI (BT-549 breast): > 100000 nM | TGI (HL-60(TB) leukemia): 654 nM | TGI (NCI-H23 lung): > 100000 nM | TGI (HCC-2998 colon): 13200 nM | TGI (DU-145 prostate): > 100000 nM | TGI (OVCAR-3 ovarian): > 100000 nM | TGI (SK-MEL-28 melanoma): > 100000 nM | TGI (LOX IMVI melanoma): > 100000 nM | TGI (MDA-MB-231 breast): > 100000 nM | TGI (U251 CNS): > 100000 nM | TGI (K-562 leukemia): > 100000 nM | TGI (SNB-19 CNS): > 100000 nM | TGI (SNB-75 CNS): > 100000 nM | TGI (UO-31 renal): > 100000 nM | TGI (SR leukemia): > 100000 nM | TGI (MCF7 breast): > 100000 nM | TGI (HOP-92 NSCLC): > 100000 nM
